Results published in PMC3960879 (Biology, 2013).
Read-outs that look alike come from different tables or passages of the source.

Legend:
[1] = biological target: T1, F17aG receptor-binding domain (Escherichia coli, UniProt Q99003); assay: biochemical; conditions: SPR steady state, 25 °C, pH 7.4
T1 construct: variants of the lectin domains with oligolysine (4Lys) tails have been constructed; made in house; host or cells: E. coli (periplasm)
Description: The affinity profiles were determined by surface plasmon resonance (SPR) measurements using a BiaCore 3000 instrument (GE Healthcare). […] The proteins were covalently immobilized on CM5 sensor chips (Biacore AB) to an average density of 2000 RU (resonance units in pg/mm^2). On each chip, one flow cell was coated with a camel single domain antibody for use as a reference cell. The other three flow cells (Fc2, Fc3 and Fc4) were coated with three different F17G variants. Carbohydrate concentrations ranging from 10 µM to 10 mM in running buffer (20 mM Hepes, pH 7.4; 150 mM NaCl; 3 mM EDTA and 0.005% surfactant Tween 20) were incubated for one minute on all flow cells simultaneously, at 25 °C and at a flow rate of 30 µL/min. Complete dissociation of the carbohydrates in running buffer was verified before starting a new binding cycle. All binding cycles were performed in duplicate, including a zero concentration cycle (injection of pure running buffer). All analysis was done using the BIAeval software. In each case the equilibrium resonance signal from the reference cell was subtracted from that of the various F17G flow cells (2-1, 3-1, 4-1). A Langmuir binding isotherm with a 1:1 stoichiometry was fitted to the data, from which the equilibrium dissociation constants, Kd, were obtained.

F17fG lectin domain = assay: CFG mammalian printed glycan array version 2 (experiment 400), F17fG; assay type: binding, Escherichia coli; conditions: CFG glycan array version 2; F17G at 200 µg/mL; SEM in parentheses
Source text: (§1) The slide was dried under a stream of nitrogen.

F17aG lectin domain = F17aG lectin domain (Escherichia coli, UniProt Q99003); conditions: CFG glycan array version 2; F17G at 200 µg/mL; SEM in parentheses
Description: (§2) A microarray presenting 264 different glycans (mammalian printed array version 2) was used to evaluate if the F17G variant lectin domains differ in the range of glycan receptors that they recognize, thereby establishing tropism. The microarray was set up within the Consortium for Functional Glycomics (CFG) ([20], and supplemental data). Binding of F17G (200 µg/mL) was detected using anti-F17G polyclonal rabbit IgG (10 µg/mL), followed by fluorescently labelled goat anti-rabbit polyclonal antibodies (IgG-488, 5 µg/mL).
(§3) A microarray presenting 264 different glycans (mammalian printed array version 2 from the CFG, experiment 400) was used to evaluate whether the F17G variant lectin domains differ in the range of glycan receptors that they can recognize, thereby establishing strain-dependent tropism. […] The glycan array screening has been repeated for F17aG only on printed array version 4.1 (experiment 2053) (Figure 1).
(§4) Printed array version 2 at the Consortium for Functional Glycomics was used for glycan array screening of the variant F17G receptor binding domains. Slides were printed, with six replicates for each glycan, using glycan spotting concentrations of 100 μM, at the Consortium Carbohydrate Synthesis/Protein Expression Core D located at the Scripps Research Institute onto Schott Nexterion H slides (Schott Cat. No. 1070936B). Slide conditioning: preprinted slides were soaked in deionized water for 5 minutes at room temperature and dried under a stream of nitrogen. TSM buffer (20 mM Tris-HCl, pH 7.4, or MOPS 20 mM; 150 mM NaCl; 2 mM CaCl2, 2 mM MgCl2) was used as wash buffer (TSM buffer + 0.05% Tween 20) or binding buffer (TSM buffer + 0.05% Tween 20 + 1% BSA). (1) F17G was diluted to 200 μg/mL (Figure 1) in TSM binding buffer. (2) 50 μL of F17G was applied to the printed surface and coverslipped. (3) The slide was incubated, protected from light, in a humidified chamber for 1 hour at RT. (4) The slide was washed once in TSM wash buffer. 50 μL of the anti-F17G (10 μg/mL) polyclonal rabbit IgG were applied, coverslipped and incubated for 1 h at RT. (5) The slide was washed once in TSM wash buffer. Fifty μL of fluorescently labelled secondary goat anti-rabbit polyclonal antibodies (IgG-488, 5 µg/mL) were applied, coverslipped and incubated for 1 h at RT. (6) Slide was removed, followed by the coverslip, and washed for 10 s each in TSM wash buffer, TSM wash buffer lacking Tween 20, and deionized water. The slide was dried under a stream of nitrogen. (7) The binding image was read in a Perkin Elmer Microscanarray XL4000 scanner and tiff file of image stored. (8) Image analysis was performed using Imagene (V.6) image analysis software. (9) Raw data results files were generated in Excel format and uploaded to the Consortium database as .dat files. (10) Imagene data was uploaded to the database as .txt files.

F17bG lectin domain = F17bG lectin domain (Escherichia coli, UniProt Q47200); conditions: CFG glycan array version 2; F17G at 200 µg/mL; SEM in parentheses
Description: as §2, §3, §4

F17dG lectin domain = F17dG lectin domain (Escherichia coli, UniProt Q47199); conditions: CFG glycan array version 2; F17G at 200 µg/mL; SEM in parentheses
Description: as §2, §3, §4

F17eG lectin domain = assay: CFG mammalian printed glycan array version 2 (experiment 400), F17eG; assay type: binding, Escherichia coli; conditions: CFG glycan array version 2; F17G at 200 µg/mL; SEM in parentheses
Source text: as §1

[2] = good fit for at least three related experiments, read-out: dissociation constant Kd, F17aG
[3] = read-out: Affinity range (Kd class), F17aG

Chain of F17dG lectin domain (Q47199 23-199): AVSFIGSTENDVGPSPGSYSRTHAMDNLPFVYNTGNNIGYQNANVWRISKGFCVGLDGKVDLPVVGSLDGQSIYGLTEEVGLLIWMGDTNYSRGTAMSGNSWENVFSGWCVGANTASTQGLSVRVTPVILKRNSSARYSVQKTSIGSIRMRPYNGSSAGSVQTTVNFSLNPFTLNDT
Chain of F17bG lectin domain (Q47200 23-199): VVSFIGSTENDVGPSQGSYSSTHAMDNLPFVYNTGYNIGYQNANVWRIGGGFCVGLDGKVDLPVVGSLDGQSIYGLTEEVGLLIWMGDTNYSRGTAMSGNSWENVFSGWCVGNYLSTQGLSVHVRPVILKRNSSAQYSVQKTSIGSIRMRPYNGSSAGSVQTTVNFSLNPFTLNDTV
Chain of F17aG lectin domain (Q99003 23-199): as the sequence (Q47199 23-199) above, with P16L, N33D, G35R, N37K, R47H, N90K counted along it
T1 sequence (Q99003 23-199): as the sequence (Q47199 23-199) above, with P16L, N33D, G35R, N37K, R47H, N90K counted along it

Molecule | Kd [1, 3] [mM] | Relative Fluorescence Units (RFU), averaged over six replicates, F17fG (F17fG lectin domain) | Relative Fluorescence Units (RFU), averaged over six replicates, F17aG (F17aG lectin domain) | Relative Fluorescence Units (RFU), averaged over six replicates, F17bG (F17bG lectin domain) | Relative Fluorescence Units (RFU), averaged over six replicates, F17dG (F17dG lectin domain) | Relative Fluorescence Units (RFU), averaged over six replicates, F17eG (F17eG lectin domain) | other results
CO[C@@H]1O[C@H](CO)[C@@H](O)[C@H](O)[C@H]1NC(C)=O [Me β N-acetylglucosamine] | 1 to 10 |  |  |  |  |  | Kd [1, 2]: 1.2 mM
CC(=O)N[C@H]1[C@H](OCCCN)O[C@H](CO)[C@@H](O)[C@@H]1O [GlcNAcβ-Sp8] |  | 10,738 (2,670) RFU | 22,909 (3,087) RFU | 12,289 (1,168) RFU | 2,514 (365) RFU | 31,863 (4,615) RFU | 
GalNAcβ1,3GalNAcα-Sp8 |  | 10,691 (3,009) RFU |  | 17,169 (4,228) RFU | 11,034 (1204) RFU | 50,791 (5,749) RFU | 
CC(=O)N[C@H]1[C@H](O[C@H]2[C@@H](O)[C@@H](CO)O[C@@H](O[C@H]3[C@H](O)[C@@H](O)C(O)O[C@@H]3CO)[C@@H]2O)O[C@H](CO)[C@@H](O)[C@@H]1O[C@@H]1O[C@H](CO)[C@H](O)[C@H](O)[C@H]1O[C@@H]1O[C@@H](C)[C@@H](O)[C@@H](O)[C@@H]1O (stereo partly drawn) [Fucα1,2Galβ1,3GlcNAcβ1,3Galβ1,4Glc] | > 100 |  |  |  |  |  | 
GlcNAcβ1,3(GlcNAcβ1,6)GalNAcα-Sp8 |  |  | 35,858 (4,079) RFU | 12,183 (1,524) RFU | 23,756 (2,105) RFU | 46,840 (6,520) RFU | 
CO[C@H]1O[C@H](CO)[C@@H](O)[C@H](O)[C@H]1NC(C)=O [Me α N-acetylglucosamine] |  |  |  |  |  |  | Kd [1, 2]: 9.8 mM
CC(=O)N[C@H]1C(O)O[C@H](CO)[C@H](O)[C@@H]1O[C@@H]1O[C@H](CO)[C@H](O)[C@H](O)[C@H]1O (stereo partly drawn) [Galβ1,3GalNAc] | 10 to 100 |  |  |  |  |  | 
CC(=O)N[C@H]1[C@H](O[C@H]2[C@@H](O)[C@@H](CO)O[C@@H](O[C@H]3[C@H](O)[C@@H](O)C(O)O[C@@H]3CO)[C@@H]2O)O[C@H](CO)[C@@H](O[C@@H]2O[C@H](CO)[C@H](O)[C@H](O)[C@H]2O)[C@@H]1O (stereo partly drawn) [Galβ1,4GlcNAcβ 1,3Gal β1,4Glc] | 10 to 100 |  |  |  |  |  | 
GlcNAcβ1,6(Galβ1,3)GalNAcα-Sp8 |  | 3,206(997) RFU | 12,541 (1,115) RFU | 6,017 (587) RFU | 3,492 (658) RFU |  | 
Gal β1,4 GlcNAc | 1 to 10 |  |  |  |  |  | 
